Test results from PMC9972480, “Synthesis of Quinoline and Dihydroquinoline Embelin Derivatives as Cardioprotective Agents” (Journal of Natural Products, 2023).
Where two headings read alike, the source gives them in different places. Marks after values point to notes of the source that are not given here.

What was measured:
[1] = test system: ROS in H9c2 cells; assay: Intracellular ROS levels, DCFH-DA assay; assay type: cell-based, rat; settings: for ROS production on co-treatment with DOX: compound 20 μM + DOX 1 μM, 24 h, vs DOX-treated cells
Protocol: Oxidative stress is produced by an imbalance between radical oxygen species (ROS) formation and endogenous antioxidant activation in reaction to cell injury, leading to myocardial toxicity. Accordingly, DOX-induced ROS production in the H9c2 cells was quantified with the DCFH-DA fluorogenic dye. […] No effects on ROS production were observed when compounds were incubated alone with cells. […] The inhibitory effects of embelin derivatives were similar to those induced by N-acetyl-cysteine (NAC), a well-known antioxidant.
Figure 5 Derivatives 4i, 6a, 6d, 6k, and 6m reduced ROS levels produced by DOX in H9c2 cells. Levels of ROS in H9c2 cells were measured fluorometrically after treatment with DOX (1 μM) alone or co-treatment with N-acetyl cysteine (NAC, 1 mM) or selected derivatives (20 μM) for 24 h, using the 2′,7′-dichlorfluorescein-diacetate (DCFH-DA) assay. Values are expressed as mean ± SD with respect to DOX-treated cells (n = 3). ****p < 0.0001 vs DOX-treated cells.
Intracellular ROS levels in H9c2 cells were evaluated by monitoring the oxidation of 2′,7′-dichlorfluorescein-diacetate (DCFH-DA) (Sigma) to fluorescent dichlorofluorescein. Cells were treated with DOX (1 μM) in the absence or presence of compounds or NAC as ROS inhibitor (1 mM) (Sigma). Then, cells were incubated with 10 μM DCFH-DA at 37 °C in the dark for 30 min. ROS level was fluorimetrically evaluated at 485/550 nm during 24 h.

[2] = test system: MCF-7 human breast tumor cells; assay: Effect on chemotherapeutic activity of DOX, MTT; assay type: cell-based; settings: MCF-7 cells, compound 20 μM + DOX 1 μM, 24 h
Protocol: Next, cytotoxicity of the selected compounds was also tested in MCF-7 breast cancer cells to disconfirm that protective effects might antagonize the antitumor effects of doxorubicin.
Figure 4 Effects of derivatives 4i, 6a, 6d, 6e, 6k, and 6m on the chemotherapeutic activity of DOX in MCF-7 human breast tumor cells. Cells were co-treated with selected compounds at 20 μM and DOX (1 μM) for 24 h. Cell viability was measured by MTT assay. Results are reported as mean of cell viability ± SD (n = 3). ****p < 0.0001 vs DOX-treated cells.
(§1) Cell viability was assessed by conducting an MTT [3-(4,5-dimethylthiazol-2-yl)-2,5-diphenyltetrazolium bromide dye] assay. Briefly, J 774A.1, H9c2, and MCF7 cells were seeded in 96-well plates for 24 h. Then, cells were treated with DOX in the absence or presence of compounds. MTT (Sigma) reagent was added to the medium for 1 h at 37 °C. Then, the formazan was dissolved in dimethyl sulfoxide (DMSO, 100 μL). Absorbance was measured at 540 nm with a microplate reader (BMG Labtech).

[3] = test system: H9c2 cardiomyocytes; assay: MTT cell viability assay (cytotoxicity) in H9c2 cardiomyocytes; assay type: cell-based, rat
Protocol: (§2) The potential cytotoxicity of embelin (1) together with derivatives (4a–4m, 5a–5d, 6a–6m) was tested in cardiomyocytes and macrophages in order to ensure that compounds lack toxicity also in immune cells. Cell viability was determined by the MTT assay.[58] Four dihydroquinoline derivatives (4b, 4f, 4i, and 4m) and six quinoline compounds (6a, 6d, 6e, 6i, 6k, and 6m) maintained higher viable cell rates in both types of cells. IC50 values of these derivatives were higher than 40 μM and were selected for further analysis.
(§3) J774A.1 murine macrophage cells, H9c2 embryonic rat heart-derived cells, and MCF-7 breast cancer cells were purchased from American Type Cell Culture (ATCC, Manassas, VA, USA). Cells were cultured in Dulbecco’s modified Eagle medium with 10% fetal bovine serum and 1% penicillin/streptomycin (Lonza) and were maintained at 37 °C in a humidified incubator containing 5% CO2.
as §1

[4] = test system: J774 macrophages; assay: MTT cell viability assay (cytotoxicity) in J774 macrophages; assay type: cell-based, murine
Protocol: as §2, §3, §1

[5] = MTT cell viability assay (cytotoxicity) in H9c2 cardiomyocytes; assay type: cell-based, rat; settings: rat, H9c2 cardiomyocytes, 24 h, MTT; for IC50 at 24 h: H9c2 cardiomyocytes (embryonic heart-derived cells), stated for both types of cells; for viability at 24 h, 10 µM / viability at 24 h, 20 µM: mean ± SD, n = 3
Protocol: as §2, §3, §1

[6] = MTT cell viability assay (cytotoxicity) in J774 macrophages; assay type: cell-based, murine; settings: mouse
Protocol: as §2, §3, §1

Compound	ROS production on co-treatment with DOX [1]	Effect on antitumor (chemotherapeutic) activity of DOX [2]	Cell viability (%) H9c2 cardiomyocytes 10 μM [3]	Cell viability (%) H9c2 cardiomyocytes 20 μM [3]	IC50 [3]	Cell viability (%) J774 macrophages 10 μM [4]	Cell viability (%) J774 macrophages 20 μM [4]	IC50 [4]	melting point	IC50 at 24 h [5]	viability at 24 h, 10 µM [5]	viability at 24 h, 20 µM [5]	IC50 at 24 h [6]	viability at 24 h, 10 µM [6]	viability at 24 h, 20 µM [6]	Levels of ROS compared to untreated cells ([1]; DOX 1 μM alone)	IC50 ([3]; Rattus norvegicus, H9c2 cardiomyocytes, 24 h, MTT, read-out: IC50 (loss in cell viability, DOX-treated vs untreated cells))
2-Hydroxy-7-methoxy-9-(4-nitrophenyl)-3-undecylacridine-1,4-dione [Compound 6k]	significantly inhibited ROS production	without reducing DOX’s chemotherapeutic effect	99.2 ± 0.8%	94.4 ± 6.3%	> 40000 nM	81.9 ± 4.6 ^e %	76.3 ± 5.3 ^e %	> 40 µM									
CCCCCCCCCCCC1=C(O)C(=O)C2=C(Nc3ccccc3C2c2ccc(C)c(C)c2)C1=O (stereo not shown) [Compound 4i, 2-Hydroxy-9-(3,4-dimethylphenyl)-3-undecyl-9,10-dihydroacridine-1,4-dione]	significantly inhibited ROS production	without reducing DOX’s chemotherapeutic effect							106 to 108 °C	> 40 µM	84.3 ± 6.8%	82.2 ± 6.2%	> 40 µM	96.2 ± 6.8%	72.6 ± 1.7%		
CCCCCCCCCCCC1=C(O)C(=O)C2=C(Nc3cc(C)cc(C)c3C2c2ccc([N+](=O)[O-])cc2)C1=O (stereo not shown) [Compound 4l, 2-Hydroxy-6,8-dimethyl-9-(4-nitrophenyl)-3-undecyl-9,10-dihydroacridine-1,4-dione]									260 to 262 °C		98.2 ± 6.6%	88.3 ± 6.1%		46.7 ± 6.6%	33.1 ± 4.5%		
CCCCCCCCCCCC1=C(O)C(=O)C2=C(Nc3ccc(Br)cc3C2c2ccc([N+](=O)[O-])cc2)C1=O (stereo not shown) [Compound 4m, 7-Bromo-2-hydroxy-9-(4-nitrophenyl)-3-undecyl-9,10-dihydroacridine-1,4-dione]									236 to 237 °C	> 40 µM	96.5 ± 5.5%	96.2 ± 4.8%	> 40 µM	94.7 ± 4.2%	77.2 ± 4.9%		
CCCCCCCCCCCC1=C(O)C(=O)c2c(nc3ccccc3c2-c2ccc([N+](=O)[O-])cc2)C1=O [Compound 6a, 2-Hydroxy-9-(4-nitrophenyl)-3-undecylacridine-1,4-dione]	significantly inhibited ROS production	without reducing DOX’s chemotherapeutic effect								> 40 µM	97.6 ± 7%	87.8 ± 6.9%	> 40 µM	96.3 ± 2.1%	76.9 ± 2.8%		
CCCCCCCCCCCC1=C(O)C(=O)c2c(nc3ccccc3c2-c2ccc(Br)cc2)C1=O [Compound 6d, 2-Hydroxy-9-(4-bromophenyl)-3-undecylacridine-1,4-dione]	significantly inhibited ROS production	without reducing DOX’s chemotherapeutic effect								> 40 µM	99.4 ± 0.2%	99.3 ± 2.6%	> 40 µM	82.1 ± 3.7%	74.5 ± 3.9%		
CCCCCCCCCCCC1=C(O)C(=O)c2c(nc3ccc(Br)cc3c2-c2ccc([N+](=O)[O-])cc2)C1=O [Compound 6m, 7-Bromo-2-hydroxy-9-(4-nitrophenyl)-3-undecylacridine-1,4-dione]	significantly inhibited ROS production	without reducing DOX’s chemotherapeutic effect								> 40 µM	89.8 ± 7.6%	85.9 ± 8.2%	> 40 µM	99.6 ± 4.6%	86.4 ± 8.7%		
COc1cccc2c1C(=O)c1c(O)c3c(c(O)c1C2=O)C[C@@](O)(C(=O)CO)C[C@@H]3O[C@H]1C[C@H](N)[C@H](O)[C@H](C)O1 [DOX, Doxorubicin, reference compound]																significantly increased the levels of ROS	830 nM
